Source: patent US20050026982A1, “Composition that consists of alkanedicarboxylic acids and a pharmaceutical active ingredient” (priority 2003, published 2005)
Entries after “also recorded” stand apart in the source; their conditions may differ. Marks after values point to notes of the source that are not given here.

Tested on: croton-oil-inflamed mouse skin
Assay: Croton oil-induced inflammation on the mouse ear (irritative contact dermatitis model), leukocyte infiltration of the skin
Type: in vivo
Conditions: metronidazole 0.75%; for Inhibition [%] of the Skin Infiltration of Granulocytes & Monocytes (Myelo-Peroxidase Activity) / Inhibition [%] of the Skin Infiltration of Neutrophilic (Elastase Activity): croton oil dissolving-out on mouse ear, inhibition vs croton oil + vehicle treatment, azelaic acid 20%, methylprednisolone 0.1%, ethanol/isopropyl myristat; for Therapeutic effect in the inflammation model in comparison to the vehicle (peroxidase and elastase activity in the skin): azelaic acid 20% in ethanol/isopropyl myristat
Excerpt: The induction of an inflammatory reaction (irritative contact dermatitis) is a common model for pharmacological evaluation of the anti-inflammatory potential of topically or systemically administered test substances (Trancik and Lowe (1985) Evaluation of Topical Nonsteroidal Anti-Inflammatory Agents, Models in Dermatology, H. Maibach and N. J. Lowe. Basel, Karger: 35-42). It has proven effective, i.a., in the testing of non-steroidal antiphlogistic agents as well as in glucocorticoid steroids and is regarded as the most reproducible in-vivo test for the evaluation of topical anti-inflammatory substances (Lorenzetti (1975) Animal to Clinical Correlation of Topical Anti-Inflammatory Efficacy. Animal Models in Dermatology. H. Maibach. Basel Karger: 212-225).
The application of the phorbol ester croton oil to mouse ears results in an acute, inflammatory reaction with edema and immigration of primarily polymorphonuclear granulocytes that reaches its maximum within 24 hours. In this connection, test substances can be administered either preventively (i.e., before administration of the inflammatory stimuli) or simultaneously with croton oil. The croton oil-induced inflammation on the mouse ear is not only a model of irritative and/or allergic contact dermatitis, but also other skin diseases that are associated with a high inflammation and immigration of granulocytes. These include psoriasis, atopic dermatis, common acne and the inflammatory stage of rosacea.
Rosacea is a disease of unknown etiology that is considered by many authors to be in the acne group and is generated on the latter and can remove the latter over the course of time. The disease is divided into three stages, of which in particular Rosacea II and III are characterized by inflammatory nodules, nodes, and patches. A leukocytic infiltrate is found by histology (Braun-Falco et al. (1995) Dermatologie und Venerologie. Heidelberg, Springer). Because of the inflammatory components of these stages with leukocyte infiltration of the skin, the croton oil model reflects aspects of this disease.
The activity included, i.a., the immigrations of leukocytes, measured as peroxidase activity in the skin, as well as the immigration of neutrophilic granulocytes, measured as elastase activity in the skin (Table 1).

| SMILES | Inhibition [%] of the Skin Infiltration of Granulocytes & Monocytes (Myelo-Peroxidase Activity) | Inhibition [%] of the Skin Infiltration of Neutrophilic (Elastase Activity) | Therapeutic effect in the inflammation model in comparison to the vehicle (peroxidase and elastase activity in the skin) |
| --- | --- | --- | --- |
| Cc1ncc([N+](=O)[O-])n1CCO [Metroidazole, 1-(2-hydroxyethyl)-2-methyl-5-nitroimidazole] | 9 (n.s.)* % | 18 (n.s.)* % | did not show such high, therapeutic effects; also recorded: do not show such high, therapeutic effects |
| O=C(O)CCCCCCCC(=O)O [Azelaic Acid, azelaic acid] | 21 (n.s.)* % | 11 (n.s.)* % | did not show such high, therapeutic effects; also recorded: do not show such high, therapeutic effects |
| C[C@H]1C[C@@H]2[C@H]([C@@H](O)C[C@@]3(C)[C@H]2CC[C@]3(O)C(=O)CO)[C@@]2(C)C=CC(=O)C=C12 [Methylprednisolone] | 90 (p < 0.05)* % | 95 (p < 0.05)* % |  |
